Assay results published in patent US12011444B2, “N-substituted indole derivatives as PGE2 receptor modulators” (Idorsia Pharmaceuticals Ltd, priority 2015, dated 2024).

What was measured:
PTRGER4 (EP4) = PTRGER4 (EP4) (Homo sapiens (Human), UniProt P35408); assay: hEP4 b-arrestin assay (PathHunter HEK 293 PTGER4 b-arrestin cells); assay type: cell-based
Method in brief: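 Antagonist mode: compound is given 15 min at 37 °C, then 20 nM (final) PGE2 for 120 min, in HEK293 cells stably expressing EP4 fused to ProLink and β-arrestin 2 fused to EA. Recruitment read as β-gal luminescence after 1 h reagent at room temperature, as percent of DMSO control.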

PTGER2 (EP2) = PTGER2 (EP2) (Homo sapiens (Human), UniProt P43116); assay: hEP2 b-arrestin assay (PathHunter HEK 293 PTGER2 b-arrestin cells); assay type: cell-based
Sequence of PTGER2 (EP2) (P43116 whole entry): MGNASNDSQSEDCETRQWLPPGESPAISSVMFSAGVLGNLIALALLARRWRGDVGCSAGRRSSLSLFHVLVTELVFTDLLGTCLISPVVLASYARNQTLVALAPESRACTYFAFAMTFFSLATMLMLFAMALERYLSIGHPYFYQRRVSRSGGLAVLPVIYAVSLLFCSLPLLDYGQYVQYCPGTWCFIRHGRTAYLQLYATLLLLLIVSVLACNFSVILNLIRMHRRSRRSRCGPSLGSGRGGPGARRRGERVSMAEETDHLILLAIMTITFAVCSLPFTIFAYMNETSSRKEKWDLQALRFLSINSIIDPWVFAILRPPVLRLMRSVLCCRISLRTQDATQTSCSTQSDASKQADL
Method in brief: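 Readout is β-galactosidase complementation luminescence, expressed as percent of DMSO control (duplicates). PathHunter HEK293 EP2/β-arrestin 2 cells, grown 24 h, received compound for 15 min at 37 °C before a 120 min challenge with PGE2 at 5 μM final, followed by 1 h detection at room temperature.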

[1] = hEP4 b-arrestin assay (values without asterisk)
[2] = hEP2 b-arrestin assay (values without asterisk)
[3] = antagonistic activity on hEP4, mean where measured multiple times
[4] = antagonistic activity on hEP2, mean where measured multiple times

Sequence of PTRGER4 (EP4) (P35408 whole entry, looked up, the tested form may be a part): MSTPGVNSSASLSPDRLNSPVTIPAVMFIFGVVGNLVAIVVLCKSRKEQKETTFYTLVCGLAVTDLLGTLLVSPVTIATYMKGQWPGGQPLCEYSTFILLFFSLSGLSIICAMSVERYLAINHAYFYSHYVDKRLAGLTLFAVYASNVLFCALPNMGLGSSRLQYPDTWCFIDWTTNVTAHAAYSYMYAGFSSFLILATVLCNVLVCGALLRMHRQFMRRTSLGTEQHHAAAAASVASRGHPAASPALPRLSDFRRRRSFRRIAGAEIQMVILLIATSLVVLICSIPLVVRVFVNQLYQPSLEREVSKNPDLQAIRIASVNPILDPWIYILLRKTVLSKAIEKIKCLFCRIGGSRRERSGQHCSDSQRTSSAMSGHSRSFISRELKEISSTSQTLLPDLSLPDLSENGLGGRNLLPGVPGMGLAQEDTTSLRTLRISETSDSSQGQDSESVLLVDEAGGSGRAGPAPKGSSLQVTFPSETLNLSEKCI

Compound	IC50 (PTRGER4 (EP4); [1])	IC50 (PTGER2 (EP2); [2])	IC50 (PTRGER4 (EP4); [3])	IC50 (PTGER2 (EP2); [4])
COc1ccc(F)c2c1cc(C#N)n2CCNc1cc(-c2cc(Cl)c(C(=O)O)c(OCC(C)C)c2)ncn1 [Example 913, 2-Chloro-4-{6-[2-(2-cyano-7-fluoro-4-methoxy-indol-1-yl)-ethylamino]-pyrimidin-4-yl}-6-isobutoxy-benzoic acid]	5 nM	13 nM	–	–
CCCc1cc(-c2cc(NCCn3c(C)cc4c(CC)ccc(F)c43)ncn2)ccc1C(=O)O [compound 338]	–	–	357 nM	858 nM
CCNC(=O)c1sc(-c2cc(NCCn3c(C#N)cc4c(OC)ccc(F)c43)ncn2)cc1OCC [Example 1024, 5-{6-[2-(2-Cyano-7-fluoro-4-methoxy-indol-1-yl)-ethylamino]-pyrimidin-4-yl}-3-ethoxy-thiophene-2-carboxylic acid ethylamide]	2 nM	14 nM	–	–
Cc1cc(F)c(F)c2c1cc(C)n2CCNc1cc(-c2ccc(-c3ncno3)cc2)ncn1 [compound 187, [2-(6,7-Difluoro-2,4-dimethyl-indol-1-yl)-ethyl]-[6-(4-[1,2,4]oxadiazol-5-yl-phenyl)-pyrimidin-4-yl]-amine]	–	–	198 nM	20 nM
COc1ccc(F)c2c1cc(C#N)n2CCNc1cc(-c2c[nH]c3ccccc23)ncn1 [Example 968, 7-Fluoro-1-{2-[6-(1H-indol-3-yl)-pyrimidin-4-ylamino]-ethyl)-4-methoxy-1H-indole-2-carbonitrile]	15 nM	4 nM	–	–
COc1ccc(F)c2c1cc(C#N)n2CCNc1cc(-c2ccc(OCC(=O)O)c(OC(F)(F)F)c2)ncn1 [Example 828, (4-{6-[2-(2-Cyano-7-fluoro-4-methoxy-indol-1-yl)-ethylamino]-pyrimidin-4-yl}-2-trifluoromethoxy-phenoxy)-acetic acid]	11 nM	10 nM	–	–
COc1ccc(Cl)c2c1cc(C)n2CCNc1cc(-c2ccc3c(c2)CCN3)ncn1 [compound 66, [2-(7-Chloro-4-methoxy-2-methyl-indol-1-yl)-ethyl]-[6-(2,3-dihydro-1H-indol-5-yl)-pyrimidin-4-yl]-amine]	–	–	189 nM	21 nM
COc1ccc(F)c2c1cc(C#N)n2CCNc1cc(-c2ccnc(N3CCCCC3)c2)ncn1 [Example 976, 7-Fluoro-4-methoxy-1-{2-[6-(3,4,5,6-tetrahydro-2H-[1,2′]bipyridinyl-4′-yl)-pyrimidin-4-ylamino]-ethyl}-1H-indole-2-carbonitrile]	317 nM	194 nM	–	–
CCOc1cc(-c2cc(NCCn3c(C)cc4c(Cl)ccc(F)c43)ncn2)ccc1C(=O)O [compound 281]	–	–	435 nM	27 nM
CCOc1cc(-c2cc(NCCn3c(C#N)cc4c(OC)cc(F)c(F)c43)ncn2)sc1C(=O)O [Example 943, 5-{6-[2-(2-Cyano-6,7-difluoro-4-methoxy-indol-1-yl)-ethylamino]-pyrimidin-4-yl}-3-ethoxy-thiophene-2-carboxylic acid]	2 nM	4 nM	–	–
COc1cccc2c1cc(C)n2CCNc1cc(-c2ccc3c(c2)C(C)NC3=O)ncn1 (racemic) [compound 86]	–	–	873 nM	12 nM
COc1ccc(F)c2c1cc(C#N)n2CCNc1cc(-c2ccc(-c3c[nH]c(C4CC4)n3)cc2)ncn1 [Example 863, 1-(2-{6-[4-(2-Cyclopropyl-1H-imidazol-4-yl)-phenyl]-pyrimidin-4-ylamino}-ethyl)-7-fluoro-4-methoxy-1H-indole-2-carbonitrile]	3 nM	5 nM	–	–
CCOc1cc(-c2cc(NCCn3c(C)cc4cc(C)cc(F)c43)ncn2)sc1C(=O)O [compound 228]	–	–	35 nM	4 nM
CCOc1cc(-c2cc(NCCn3c(C#N)cc4c(Cl)cc(F)c(F)c43)ncn2)ccc1OCC(=O)O [Example 914, (4-{6-[2-(4-Chloro-2-cyano-6,7-difluoro-indol-1-yl)-ethylamino]-pyrimidin-4-yl}-2-ethoxy-phenoxy)-acetic acid]	68 nM	32 nM	–	–
CCOc1cc(-c2cc(NCCn3c(C#N)cc4c(OC)cccc43)ncn2)ccc1NCC(=O)O [Example 865, (4-{6-[2-(2-Cyano-4-methoxy-indol-1-yl)-ethylamino]-pyrimidin-4-yl}-2-ethoxy-phenylamino)-acetic acid]	5 nM	7 nM	–	–
CCNc1cc(-c2cc(NCCn3c(C)cc4cccc(Cl)c43)ncn2)ccc1C(=O)O [compound 137, 4-{6-[2-(7-Chloro-2-methyl-indol-1-yl)-ethylamino]-pyrimidin-4-yl}-2-ethylamino-benzoic acid]	–	–	897 nM	2 nM
CCOc1cc(-c2cc(NCCn3c(C#N)cc4c(OC)ccc(F)c43)ncn2)sc1C(=O)NS(N)(=O)=O [Example 1029, 5-(6-((2-(2-Cyano-7-fluoro-4-methoxy-1H-indol-1-yl)ethyl)amino)pyrimidin-4-yl)-3-ethoxy-N-sulfamoylthiophene-2-carboxamide]	6 nM	4 nM	–	–

The next lines start with the values.

IC50 (PTRGER4 (EP4); [1])	IC50 (PTGER2 (EP2); [2])	IC50 (PTRGER4 (EP4); [3])	IC50 (PTGER2 (EP2); [4])	Compound
–	–	251 nM	267 nM	COc1nc(-c2cc(NCCn3c(C)cc4c(OC)ccc(F)c43)ncn2)cs1 [compound 2]
20 nM	64 nM	–	–	COc1ccc(F)c2c1cc(C)n2CCNc1cc(-c2nc(C(C)(C)C)c(C(=O)O)s2)ncn1 [Example 1038, 4-tert-Butyl-2-{6-[2-(7-fluoro-4-methoxy-2-methyl-indol-1-yl)-ethylamino]-pyrimidin-4-yl}-thiazole-5-carboxylic acid]
1 nM	1 nM	–	–	CCOc1cc(-c2cc(NCCn3c(C)cc4c(OC)ccc(F)c43)ncn2)sc1-c1noc(=O)[nH]1 [Example 1054, 3-(3-Ethoxy-5-{6-[2-(7-fluoro-4-methoxy-2-methyl-indol-1-yl)-ethylamino]-pyrimidin-4-yl}-thiophen-2-yl)-[1,2,4]oxadiazol-5(4H)-one]
58 nM	59 nM	–	–	COc1cc2[nH]ncc2cc1-c1cc(NCCn2c(C#N)cc3c(OC)ccc(F)c32)ncn1 [Example 981, 7-Fluoro-4-methoxy-1-{2-[6-(6-methoxy-1H-indazol-5-yl)-pyrimidin-4-ylamino]-ethyl}-1H-indole-2-carbonitrile]
–	–	75 nM	4 nM	CCOc1cc(-c2cc(NCCn3c(C)cc4c(OC)ccc(F)c43)ncn2)ccc1CO [compound 159, (2-Ethoxy-4-{6-[2-(7-fluoro-4-methoxy-2-methyl-indol-1-yl)-ethylamino]-pyrimidin-4-yl}-phenyl)-methanol]
224 nM	104 nM	–	–	COc1ccc(F)c2c1cc(C)n2CCNc1cc(-c2ccc(C(=O)O)c(OC3CC4(COC4)C3)c2)ncn1 [Example 1039, 4-{6-[2-(7-Fluoro-4-methoxy-2-methyl-indol-1-yl)-ethylamino]-pyrimidin-4-yl}-2-(2-oxaspiro[3.3]hept-6-yloxy)-benzoic acid]
540 nM	142 nM	–	–	COc1ncc(-c2cc(NCCn3c(C#N)cc4c(OC)ccc(F)c43)ncn2)cn1 [Example 991, 7-Fluoro-4-methoxy-1-[2-(2′-methoxy-[4,5]bipyrimidinyl-6-ylamino)-ethyl]-1H-indole-2-carbonitrile]
7 nM	8 nM	–	–	COc1ccc(F)c2c1cc(C#N)n2CCNc1cc(-c2ccc(-c3cn(C)c(C)n3)cc2)ncn1 [Example 824, 1-(2-{6-[4-(1,2-Dimethyl-1H-imidazol-4-yl)-phenyl]-pyrimidin-4-ylamino}-ethyl)-7-fluoro-4-methoxy-1H-indole-2-carbonitrile]
